Reference: article PMC9861623, “New Ferulic Acid and Amino Acid Derivatives with Increased Cosmeceutical and Pharmaceutical Potential” (Pharmaceutics, 2022)
“And” between values parts separate entries of the source, which are not always exact repeats. Equal entries are not always repeated.

Columns and labels:
[1] = DPPH antioxidant activity of acceptor fluid after 24 h permeation; set-up: species or system pig; conditions: after 24 h penetration
Procedure: To determine the antioxidant capacity of ferulic acid and its derivatives the DPPH method was used. The analyses were performed using the Hitachi UV-Vis Spectrophotometer U-5100 at the wavelength λ = 517 nm. Trolox (6-hydroxy-2,5,7,8-tetramethylchroman-2-carboxylic acid) was used as a reference substance. The antioxidant activity was expressed as %RSA and mmol Trolox dm^−3. […]. Blank samples without antioxidant were prepared in the same way. The tubes were wrapped in aluminum foil and were sealed with a stopper and then incubated for 10 min at room temperature. After this time, spectrophotometric measurements were carried out in triplicate. For determination of antioxidant activity of the acceptor fluid after 24 h of permeation and solutions obtained by extraction of the skin obtained after penetration study, 0.15 mL samples of each solutions were separately added to 2.85 mL of DPPH solution and spectrophotometric measurements were performed. The antioxidant activity was expressed as mmol Trolox·dm^−3.
(§1) The permeation experiments were performed using Franz diffusion cells (Phoenix DB-6, ABL&E-JASCO, Wien, Austria). The diffusion was 1 cm^2. The volume of the acceptor chamber was 8 mL. This chamber was filled with PBS solution (pH 7.4). During experiment, a constant temperature of 37.0 ± 0.5 °C was maintained in each diffusion unit. The acceptor chamber content was stirred with a magnetic stirring bar at the same speed for all cells. The prepared pig skin was mounted on each donor chamber. As previously mentioned, only undamaged skin pieces with an even thickness were chosen for experiments. Thereafter, the hydrogel or emulsion vehicle/preparation in 1 g portion was put on the skin in donor cells. For comparison, 1 mL ethanolic solution containing either FA or its derivatives was applied to another donor chamber. The amount of the FA and its derivatives applied on the skin expressed as the mass of ferulic acid was 0.01 g and was the same for each carrier. The penetration experiments were carried out for 24 h. The samples were collected after 1 h, 2 h, 3 h, 4 h, 5 h, 6 h, 8 h, and 24 h. Aliquots of the acceptor fluid (0.5 mL) were withdrawn and to each acceptor chamber the same volume of fresh PBS solution was added. The FA and its derivatives’ concentrations in the acceptor fluid were measured by HPLC method (Section 2.6.2). The cumulative mass (µg·cm^−2) and penetration rate (µg·cm^−2·h^−1) were calculated. The acceptor fluid collected after 24 h of permeation was also measured for antioxidant activity and total polyphenol content (as described in Section 2.5.1 and Section 2.5.2).

[2] = Skin permeation in Franz diffusion cells; type: in vitro ADME, pig; conditions: 24 h, 10 mg as FA applied
Procedure: In the experiment, abdominal porcine skin coming from the local slaughterhouse was used. Pig skin was chosen because of its similar permeability to human skin [34, 35]. The fresh abdominal porcine skin was washed several times in PBS buffer pH 7.4. The skin of 0.5 mm in thickness was dermatomed and divided into 2 cm × 2 cm pieces. The skin samples were wrapped in aluminum foil and stored at −20 °C until use, not longer than 3 months. According to Badran et al., this storage time at this temperature is safe to keep skin barrier properties. Immediately before the experiment, the skin samples were slowly thawed at room temperature for 30 min and then were hydrated by PBS pH 7.4 [37, 38, 39, 40]. Such prepared skin was mounted on donor chamber. Only the undamaged skin pieces with an even thickness were chosen for experiments. The integrity of the skin was checked by impedance measurement using an LCRmeter4080 (Conrad Electronic, Hirschau, Germany), operated in parallel mode at an alternating frequency of 120 Hz (error at kΩ values < 0.5%). The tips of measuring probes were immersed in the donor and acceptor chamber containing PBS (pH 7.4), as described previously. Only skin samples of impedance > 3 kΩ were applied as such impedance is similar to the electrical resistance of human skin [42].
The concentration of FA and its derivatives in the acceptor fluid and in the fluid obtained by skin extraction after permeation experiment was assessed using liquid chromatography system (Knauer, Berlin, Germany) consisting of a model 2600 UV detector, Smartline model 1050 pump and Smartline model 3950 autosampler. HPLC was controlled by ClarityChrom 2009 software. The detector was operated at 280 nm. The separations were performed on 125 mm × 4 mm ID chromatographic column filled with Hyperisil ODS (C18), particle size 5 µm, in isocratic mode. The mobile phase consisted of acetonitrile, 1% acetic acid, and MeOH (47/47/6 v/v/v) and was pumped at flow rate of 1 mL min^−1. The column temperature was set at 25 °C, and the injection volume was 20 µL.
as §1

fibroblasts = system: fibroblasts; set-up: method as in doi:10.3390/pr9071204; conditions: fibroblasts after UVB irradiation, increased from 9.92%; cited from earlier work
diabetic rats = system: diabetic rats; set-up: method as in doi:10.1016/j.jddst.2022.103621; conditions: 50 mg kg^−1 body wt., orally for 8 weeks; cited from earlier work

In the case of `COc1cc(/C=C/C(=O)O)ccc1O` [Ferulic acid], the “DPPH antioxidant activity of the acceptor fluid” value (“DPPH antioxidant activity” for short) ([1]; emulsion) is reported as 0.057 ± 0.004 a mmol Trolox dm^−3, the “DPPH antioxidant activity” value ([1]; ethanol solution, listed as FA) is reported as 0.079 ± 0.010 mmol Trolox dm^−3 and 0.079 ± 0.010 a mmol Trolox dm^−3 and the “DPPH antioxidant activity” value ([1]; hydrogel) is reported as 0.067 ± 0.004 a mmol Trolox dm^−3. The “Cumulative Permeation Mass” value ([2]; from emulsion) was 104.93 ± 7.63 a µg FA·cm^−2, the “Cumulative Permeation Mass” value ([2]; from hydrogel) was 289.36 ± 38.50 a µg FA·cm^−2 and the “Cumulative Permeation Mass” value ([2]; from solution in 70% (v/v) ethanol) was 368.57 ± 2.94 a µg FA·cm^−2. The “percentage of viable cells” value (fibroblasts) was 46.02% and the “effect in diabetic rats” value (diabetic rats) was “markedly ameliorated kidney injury, renal cell apoptosis, inflammation, and defective autophagy in the kidneys”.
